From patent US4158052A, “Oil-free adjuvant compositions containing N-acetyl-muramyl-L-alanyl-D-isoglutamine” (priority 1975, dated 1979)
Entries after “also recorded” stand apart in the source; their conditions may differ.

Assays:
mice [1] = assay: Adjuvanticity in aqueous solution: antibody levels in mice after BSA plus adjuvant in saline (PHA, ABC); assay type: in vivo; settings: for antibody ABC Day 14 / antibody ABC Day 28 / antibody PHA Day 14 / antibody PHA Day 28: primary response; for antibody ABC Day 34 / antibody ABC Day 36 / antibody PHA Day 34 / antibody PHA Day 36: secondary response (BSA recall day 30); for adjuvanticity in aqueous solution (antibody titer), in words: administered in saline with BSA, mice
Description: In these experiments, the antibody levels in mice are determined following the injection of various compositions. The injected compositions contain bovine serum albumin (BSA) as antigen and the adjuvant compound according to the invention. The mice used as controls received the BSA and lipopolysaccharides. The compositions are injected in solution in saline. The injected dose of BSA is 0.5 mg per mouse, the recall dose (30 days after the first injection) contains 0.1 mg of BSA. Each tested composition is administered to eight mice. At various time intervals following the injection, the mice are bled to check the antibody level.
The antibody estimation is made either by passive hemagglutination (PHA) using formalinized sheep red blood cells coated with the tested antigen, or according to the method taught by A. A. Hirata and M. W. Brandiss (J. Immunol., 100, 641-648, 1968), or by the so-called antigen binding capacity method as described by P. Minden and S. Farr (Handbook of Exp. Immunol., p. 463, Weir D. M. ed. Blackwell Scientific Pub., Oxford and Edinburgh, 1967). […]
The antibody estimation is made either by passive hemagglutination (PHA) using formalinized sheep red blood cells coated with the tested antigen, or according to method taught by A. A. Hirata and M. W. Brandiss (J. Immunol., 100, 641-648, 1968), or by the so-called antigen binding capacity method described by P. Minden and S. Farr (Handbook of Exp. Immunol., p. 463, Weir D. M. ed. Blackwell Scientific Pub., Oxford and Edinburgh, 1967).

Hartley guinea pigs = settings: for immunogenicity, in words: conclusion from skin tests in guinea pigs; for hypersensitivity reaction, in words: guinea pigs treated with FIA + compound
Description: For comparison, simultaneous tests were carried out with Freund's complete adjuvant (FCA).
Hartley guinea pigs weighing 350 g are skin-tested. […] Forty-eight hours after this second injection, the diameter of reaction is measured (in mm).
The estimation is made as previously described.

Swiss common stock mice = assay: Toxicity: lethal dose in mice, intravenous injection; assay type: in vivo; settings: 300 μg, adrenalectomised mice
Description: The compound according to the invention has been compared with the lipopolysaccharide (LPS) prepared by the phenol-water procedure from S.enteriditis, with regard to their lethal doses (LD).
The method used to carry out these experiments is described by Chedid and al. in Ann. N.Y. Acad. Sci. 133:712, 1966. The tests are made on two month old Swiss common stock mice. The assayed products are administered by intravenous injections.
The compound according to the invention has been compared with the lipopolysaccharide (LPS) prepared by the phenol-water procedure from S.enteriditis with regard to their lethal dose (LD).
The method used to carry out these experiments is described by Chedid and al. in Ann. N.Y. Acad. Sci. 135:712, 1966. The tests are made on two month old Swiss common stock mice. The assayed products are administered by intravenous injection.

Hartley's guinea pigs = assay: Adjuvanticity with a water in oil emulsion (comparative assay), ovalbumin antigen; assay type: in vivo; settings: 50 μg compound with FIA + ovalbumin
Description: As previously, the adjuvanticity is estimated from the increase of the antibody level following an antigen injection. In these experiments, ovalbumin is used as antigen. Assays are carried out on Hartley's guinea pigs weighing 350 g. The animals are injected with 0.1 ml in each posterior footpad. Each dose contains 1 mg ovalbumin and either the Freund's complete adjuvant (FCA) or the Freund's incomplete adjuvant (FIA) or this one with the compound of the invention (50 μg). The antibody titer is estimated 21 days after the injection, by passive hemagglutination as indicated above, or by precipitation according to Folin's method.
A skin test for delayed hypersensitivity is made 18 days after the injection on the same animals. They received 5 μg of ovalbumin by intradermal injection. 48 hours later, the diameter of reaction is measured (in mm).

mice [2] = assay: Reaction to influenza virus: adjuvanticity with influenza vaccine (hemagglutination inhibition); assay type: in vivo; settings: vaccine + adjuvant compound versus vaccine only, vaccine recall after 30 days
Description: The adjuvanticity of the Mur-NAc-L-Ala-D-Glu-α-NH2 has been studied against the influenza vaccine on mice. The tested animals are injected with the vaccine and the adjuvant compound whereas controls only received the vaccine. Thirty days later, a recall containing only the vaccine is injected.
It is to be observed that the antibody level is much higher in animals which have received both vaccine and adjuvant compound than in controls. (The measure is made by hemagglutination inhibition following the method proposed by the World Health Organisation Comitee (1953).)

[3] = 100 μg per mouse + BSA in saline
[4] = 30 μg per mouse + BSA in saline
[5] = 300 μg per mouse + BSA in saline

Row | SMILES | antibody ABC Day 14 (mice [1]; [3]) | antibody ABC Day 28 (mice [1]; [3]) | antibody PHA Day 14 (mice [1]; [3]) | antibody PHA Day 28 (mice [1]; [3]) | antibody ABC Day 34 (mice [1]; [3]) | antibody ABC Day 36 (mice [1]; [3]) | antibody PHA Day 34 (mice [1]; [3]) | antibody PHA Day 36 (mice [1]; [3]) | adjuvanticity in aqueous solution (antibody titer), in words (mice [1]) | immunogenicity, in words (Hartley guinea pigs) | hypersensitivity reaction, in words (Hartley guinea pigs) | survival after injection (Swiss common stock mice) | also measured
1 | CC(=O)N[C@H]1C(O)O[C@H](CO)[C@@H](O)[C@@H]1O[C@H](C)C(=O)N[C@@H](C)C(=O)N[C@H](CCC(=O)O)C(=O)O (stereo partly drawn) [Mur-NAc-L-Ala-D-Glu(OH), 2-(2-acetamido-2-deoxy-3-O-D-glucopyranosyl)-D-propionyl-L-alanyl-D-glutamic acid] | < 20 | 80 | 3 | 50 | 320 | 630 | 400 | 2,130 | induces an enhancement of the antibody titer | not immunogenic | no hypersensitivity reaction is observed | All mice survived | antibody titer against ovalbumin, in words (Hartley's guinea pigs): does not induce an increase of the antibody titer; skin test reaction to ovalbumin (delayed hypersensitivity), in words (Hartley's guinea pigs; compared with FCA): light
2 | CC(=O)N[C@@H]1[C@@H](O[C@H](C)C(=O)N[C@@H](C)C(=O)N[C@H](CCC(=O)O)C(N)=O)[C@H](O)[C@@H](CO)O[C@H]1O [Mur-NAc-L-Ala-D-Glu-α-NH2, 2-(2-acetamido-2-deoxy-3-O-D-glucopyranosyl)-D-propionyl-L-alanyl-D-α-isoglutamine] | < 20 | 82 | < 3 | 25 | 270 | 520 | 400 | 2150 | induces an enhancement of the antibody titer that can be compared with the one caused by injecting the LPS; also recorded: high antibody titers were observed | not immunogenic | no hypersensitivity reaction is observed | All the mice survived | antibody ABC Day 14 (mice [1]; [4]): < 20; antibody ABC Day 28 (mice [1]; [4]): 75; antibody PHA Day 14 (mice [1]; [4]): 3; antibody PHA Day 28 (mice [1]; [4]): 25; antibody ABC Day 34 (mice [1]; [4]): 210; antibody ABC Day 36 (mice [1]; [4]): 400; antibody PHA Day 34 (mice [1]; [4]): 200; antibody PHA Day 36 (mice [1]; [4]): 800; antibody ABC Day 14 (mice [1]; [5]): < 20; antibody ABC Day 28 (mice [1]; [5]): 50; antibody PHA Day 14 (mice [1]; [5]): < 3; antibody PHA Day 28 (mice [1]; [5]): 25; antibody ABC Day 34 (mice [1]; [5]): 230; antibody ABC Day 36 (mice [1]; [5]): 550; antibody PHA Day 34 (mice [1]; [5]): 200; antibody PHA Day 36 (mice [1]; [5]): 975; antibody level against influenza vaccine (hemagglutination inhibition), in words (mice [2]): much higher
